Assay results reported in PMC3922815 (PLoS ONE, 2014).
Several values for one entry are separate records, joined by “and”; a condition that tells them apart may be missing. Equal entries are not always repeated. Where two headings read alike, the source gives them in different places.

Key:
human GABAA α5β2γ2 [1] = target: T1, human GABAA α5β2γ2 (Homo sapiens, UniProt P18507+P31644); test: biochemical
human GABAA α2β2γ2 [2] = target: T2, human GABAA α2β2γ2 (Homo sapiens, UniProt P18507+P47869); test: biochemical
T2 sequence (P47869 29-451): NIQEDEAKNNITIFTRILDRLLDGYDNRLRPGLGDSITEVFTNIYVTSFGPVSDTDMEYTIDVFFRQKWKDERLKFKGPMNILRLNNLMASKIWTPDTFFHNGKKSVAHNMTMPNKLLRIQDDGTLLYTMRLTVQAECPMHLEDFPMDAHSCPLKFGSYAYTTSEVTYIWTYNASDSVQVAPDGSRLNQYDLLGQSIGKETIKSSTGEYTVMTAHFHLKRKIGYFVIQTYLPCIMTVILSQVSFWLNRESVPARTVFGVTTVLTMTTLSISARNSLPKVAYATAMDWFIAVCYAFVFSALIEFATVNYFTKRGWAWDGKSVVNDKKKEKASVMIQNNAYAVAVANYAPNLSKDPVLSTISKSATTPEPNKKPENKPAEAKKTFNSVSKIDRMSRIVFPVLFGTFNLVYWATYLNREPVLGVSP
T2 sequence (P47870 25-512 partner limits assumed): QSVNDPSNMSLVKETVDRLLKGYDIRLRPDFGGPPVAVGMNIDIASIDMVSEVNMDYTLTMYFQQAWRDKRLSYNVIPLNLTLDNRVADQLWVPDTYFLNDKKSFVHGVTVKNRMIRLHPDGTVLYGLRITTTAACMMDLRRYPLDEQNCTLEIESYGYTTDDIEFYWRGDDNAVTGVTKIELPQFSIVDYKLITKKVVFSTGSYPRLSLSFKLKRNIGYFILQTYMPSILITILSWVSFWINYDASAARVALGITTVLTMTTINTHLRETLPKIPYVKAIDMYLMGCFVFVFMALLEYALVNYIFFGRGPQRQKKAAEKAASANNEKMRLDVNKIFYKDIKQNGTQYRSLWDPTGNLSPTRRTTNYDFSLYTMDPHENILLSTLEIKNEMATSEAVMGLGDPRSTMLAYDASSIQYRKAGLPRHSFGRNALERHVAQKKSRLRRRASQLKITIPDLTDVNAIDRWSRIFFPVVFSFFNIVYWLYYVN
T2 sequence (P18507 40-475): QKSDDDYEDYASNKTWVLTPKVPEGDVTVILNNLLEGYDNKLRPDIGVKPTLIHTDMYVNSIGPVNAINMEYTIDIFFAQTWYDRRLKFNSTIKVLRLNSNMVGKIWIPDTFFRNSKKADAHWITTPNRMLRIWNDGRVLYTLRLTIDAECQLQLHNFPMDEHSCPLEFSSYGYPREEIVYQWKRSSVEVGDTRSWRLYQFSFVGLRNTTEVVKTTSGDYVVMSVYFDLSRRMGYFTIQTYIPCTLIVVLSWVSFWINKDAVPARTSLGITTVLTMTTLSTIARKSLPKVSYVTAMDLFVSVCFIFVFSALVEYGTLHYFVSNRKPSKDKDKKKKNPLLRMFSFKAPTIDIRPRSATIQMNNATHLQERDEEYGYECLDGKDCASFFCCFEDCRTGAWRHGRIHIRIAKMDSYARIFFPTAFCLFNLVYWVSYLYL

human GABAA α2β2γ2 [3] = target: T2, human GABAA α2β2γ2
human GABAA α3β2γ2 [4] = target: T3, human GABAA α3β2γ2 (Homo sapiens, UniProt P18507+P34903); settings: Ki α3β2γ2 / Ki α2β2γ2
T3 sequence (P34903 29-492): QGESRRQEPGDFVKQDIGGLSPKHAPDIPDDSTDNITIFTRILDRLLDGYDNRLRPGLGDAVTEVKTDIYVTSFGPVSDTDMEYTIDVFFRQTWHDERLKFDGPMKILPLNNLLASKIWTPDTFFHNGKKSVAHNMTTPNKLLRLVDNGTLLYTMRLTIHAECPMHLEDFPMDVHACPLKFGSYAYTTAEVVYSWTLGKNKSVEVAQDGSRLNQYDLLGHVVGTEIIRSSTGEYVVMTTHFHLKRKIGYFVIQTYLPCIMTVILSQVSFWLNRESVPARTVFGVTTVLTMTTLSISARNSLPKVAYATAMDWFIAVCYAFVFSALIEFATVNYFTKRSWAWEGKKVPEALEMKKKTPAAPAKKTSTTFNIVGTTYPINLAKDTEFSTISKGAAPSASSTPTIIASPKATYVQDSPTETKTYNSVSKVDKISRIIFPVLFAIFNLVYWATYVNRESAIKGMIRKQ
T3 sequence (P47870 25-512 partner limits assumed): as the sequence (P47870 25-512 partner limits assumed) above
T3 sequence (P18507 40-475): as the sequence (P18507 40-475) above

human GABAA α1β2γ2 [5] = target: T4, human GABAA α1β2γ2 (Homo sapiens, UniProt P14867+P18507); settings: for Binding affinity normalized to GABAA α2 (ratio of Ki values): Ki α1β2γ2 / Ki α2β2γ2
T4 sequence (P14867 28-456): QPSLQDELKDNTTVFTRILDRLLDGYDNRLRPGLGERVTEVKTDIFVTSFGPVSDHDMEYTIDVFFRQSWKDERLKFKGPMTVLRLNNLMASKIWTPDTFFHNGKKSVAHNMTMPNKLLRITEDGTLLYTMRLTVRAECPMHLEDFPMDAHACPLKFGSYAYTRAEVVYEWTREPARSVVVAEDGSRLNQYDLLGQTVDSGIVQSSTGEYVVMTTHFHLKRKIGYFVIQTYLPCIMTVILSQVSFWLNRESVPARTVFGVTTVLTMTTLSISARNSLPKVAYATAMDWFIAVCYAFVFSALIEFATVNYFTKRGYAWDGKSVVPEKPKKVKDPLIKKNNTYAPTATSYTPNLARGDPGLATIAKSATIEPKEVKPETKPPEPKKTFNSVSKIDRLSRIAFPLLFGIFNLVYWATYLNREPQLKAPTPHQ
T4 sequence (P47870 25-512 partner limits assumed): as the sequence (P47870 25-512 partner limits assumed) above
T4 sequence (P18507 40-475): as the sequence (P18507 40-475) above

[6] = target: native GABAA receptors from rat-brain homogenates
human GABAA α1β2γ2 [7] = target: T4, human GABAA α1β2γ2; test: biochemical
human GABAA α3β2γ2 [8] = target: T3, human GABAA α3β2γ2; test: biochemical
human GABAA α5β2γ2 [9] = target: T1, human GABAA α5β2γ2; settings: Ki α5β2γ2 / Ki α2β2γ2
[10] = target: human GABAA-receptor complexes α1β2γ2, α2β2γ2, α3β2γ2, α5β2γ2
[11] = tested on: PTZ and audiogenic-induced seizures; set-up: method as in PMID 10816315; settings: PTZ and audiogenic-induced seizures in mice; cited from earlier work
human GABAA α5β2γ2 [12] = target: T1, human GABAA α5β2γ2
human GABAA α3β2γ2 [13] = target: T3, human GABAA α3β2γ2
[14] = cited from earlier work
[15] = tested on: refractory epilepsy patients; set-up: method as in PMID 3828198; settings: dosages giving concentrations similar to those after clobazam dosing; cited from earlier work
human GABAA α2β2γ2 [16] = target: T2, human GABAA α2β2γ2; remark: listed apart in the source
[17] = tested on: pentylenetetrazole (PTZ)-induced seizures; set-up: method as in PMID 17092983; settings: greatest diazepam dosage, cited from earlier work
[18] = tested on: tonic convulsions following PTZ administration; set-up: method as in PMID 11021797; settings: cited from earlier work; for percentage of mice convulsing: 3 mg/kg

T1 sequence (P31644 32-462): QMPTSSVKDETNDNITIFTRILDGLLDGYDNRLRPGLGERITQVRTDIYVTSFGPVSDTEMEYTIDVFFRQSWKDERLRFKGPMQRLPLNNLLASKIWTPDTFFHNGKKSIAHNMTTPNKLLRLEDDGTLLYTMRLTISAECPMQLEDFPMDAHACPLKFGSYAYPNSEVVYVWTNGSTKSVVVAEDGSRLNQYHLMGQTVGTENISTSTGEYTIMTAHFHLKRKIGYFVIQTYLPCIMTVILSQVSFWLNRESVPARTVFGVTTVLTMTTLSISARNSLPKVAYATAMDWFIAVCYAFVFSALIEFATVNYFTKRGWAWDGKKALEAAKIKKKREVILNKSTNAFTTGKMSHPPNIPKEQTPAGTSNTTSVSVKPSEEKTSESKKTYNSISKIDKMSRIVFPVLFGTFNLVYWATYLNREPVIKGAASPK
T1 sequence (P47870 25-512 partner limits assumed): as the sequence (P47870 25-512 partner limits assumed) above
T1 sequence (P18507 40-475): as the sequence (P18507 40-475) above

CN1C(=O)CC(=O)N(c2ccccc2)c2cc(Cl)ccc21 [Clobazam]
Ki (human GABAA α5β2γ2 [1]): 331 nM
Ki (human GABAA α2β2γ2 [2]): 205 nM
Binding affinity normalized to GABAA α2 (ratio of Ki values) (human GABAA α2β2γ2 [3]): 1
Binding affinity normalized to GABAA α2 (ratio of Ki values) (human GABAA α3β2γ2 [4]): 3.7
Binding affinity normalized to GABAA α2 (ratio of Ki values) (human GABAA α1β2γ2 [5]): 2.5
Ki [6]: 151 nM
Ki (human GABAA α1β2γ2 [7]): 519 nM
Ki (human GABAA α3β2γ2 [8]): 753 nM
Binding affinity normalized to GABAA α2 (ratio of Ki values) (human GABAA α5β2γ2 [9]): 1.6

O=C1CN=C(c2ccccc2Cl)c2cc([N+](=O)[O-])ccc2N1 [Clonazepam]
Ki (human GABAA α5β2γ2 [1]): 0.78 nM
Ki (human GABAA α2β2γ2 [2]): 0.72 nM
Ki [10]: 0.65 to 2.2 nM
Binding affinity normalized to GABAA α2 (ratio of Ki values) (human GABAA α2β2γ2 [3]): 1
Binding affinity normalized to GABAA α2 (ratio of Ki values) (human GABAA α1β2γ2 [5]): 0.9
Ki [6]: 0.263 nM and 0.26 nM
Ki (human GABAA α1β2γ2 [7]): 0.65 nM
Ki (human GABAA α3β2γ2 [8]): 2.24 nM
Binding affinity normalized to GABAA α2 (ratio of Ki values) (human GABAA α5β2γ2 [9]): 1.1

Cn1ncnc1COc1nn2c(-c3cc(F)ccc3F)nnc2cc1C(C)(C)C [L-838,417]
anticonvulsant activity [11]: retains anticonvulsant activity

O=C1CC(=O)N(c2ccccc2)c2cc(Cl)ccc2N1 [N-desmethylclobazam]
Ki (human GABAA α5β2γ2 [12]): 295 nM and 292 nM
Ki (human GABAA α3β2γ2 [13]): 661 nM and 668 nM
half-life ([14]; humans): 79 h
concentration of N-CLB relative to the parent compound ([14]; prolonged clinical use of CLB): more than 2 fold
patients responding favorably [15]: 8 of 9
Binding affinity normalized to GABAA α2 (ratio of Ki values) (human GABAA α2β2γ2 [3]): 1
Binding affinity normalized to GABAA α2 (ratio of Ki values) (human GABAA α3β2γ2 [4]): 4.6
Ki (human GABAA α1β2γ2 [5]): 631 nM and 634 nM
Binding affinity normalized to GABAA α2 (ratio of Ki values) (human GABAA α1β2γ2 [5]): 4.3
Ki [6]: 132 nM and 133 nM
Binding affinity normalized to GABAA α2 (ratio of Ki values) (human GABAA α5β2γ2 [9]): 2.0
Ki (human GABAA α2β2γ2 [16]): 148 nM and 147 nM

Cc1ccc(-c2nc3ccc(C)cn3c2CC(=O)N(C)C)cc1 [Zolpidem]
Ki (human GABAA α5β2γ2 [1]): 5430 nM
Ki [10]: 30 to 5430 nM

CN1C(=O)CN=C(c2ccccc2F)c2cc([N+](=O)[O-])ccc21 [^3H-flunitrazepam]
Kd ([6]; read-out: Kd (tracer equilibrium dissociation constant), saturation binding, rat-brain homogenates): 1.5 ± 0.2 nM

CN1C(=O)CN=C(c2ccccc2)c2cc(Cl)ccc21 [diazepam]
seizure level on the Racine scale ([17]; wild-type mice, reversed from 6): 1
seizure scoring on the Racine scale ([17]; α2(H101R) mice): approximately 3.5
percentage of mice convulsing ([18]; wild-type mice): approximately 20%
percentage of mice convulsing ([18]; α2(H101R) mice): approximately 50%
protection from tonic convulsions ([18]; 10 and 30 mg/kg, both wild-type and α2(H101R) mice): 100%
